The text below walks through data of EP0178438A1, “Novel compounds” (BEECHAM GROUP PLC, priority 1984, dated 1986).

This assay relates to acid secretion. The assay is described as follows: perfused rat stomach preparation (anti-secretory response, pH of perfusate). It is filed as in vivo, male Wistar rats. The following applies: bolus intravenous injection, maximal reduction in hydrogen-ion concentration as percentage of control, carbachol or histamine stimulated, urethane anaesthetized rat; for inhibition in vivo at 2 µmol/kg: Dose 2 μmol/kg; for inhibition in vivo at 2.5 µmol/kg: Dose 2.5 μmol/kg; for inhibition in vivo at 1 µmol/kg: Dose 1 μmol/kg. How it is done: The modified (1) perfused stomach preparation (2) ofthe urethane (25% solution) anaesthetized rat, maintained at 37 °C, allows the continuous measurement of pH during basal and stimulated acid secretion.
The lumen of the stomach of male Wistar rats (approximately 200 g bodyweight) was perfused, via a cannula designed to reduce the dead space of the stomach, with 5% glucose solution (37°C) at the rate of 3 ml/min. The perusate was forced over the surface of the secretory mucose only, the antrum being excluded. The effluent then passed over a microflow type glass pH electrode via a collecting funnel situated in the non-glandular forestomach.
The secretagogue carbachol or histamine was administered as a constant intravenous infusion to produce a stady rate of acid secretion. Test compounds were administered in solution as bolus intravenous injections and any effect on th pH of the perfusate noted. The perfusate Ph was recorded on a potentiometric recorder and anti-secretory responses were measure in terms of the maximal reduction in hydrogen-ion concentration expressed as a percentage of the 'control' concentrations.

`Cc1c(N2CCOCC2)ccnc1C[S+]([O-])c1nc2ccccc2[nH]1` (centres unmarked) [Example 21b, 2-[(3-Methyl-4-morpholino-pyrid-2-yl)methylsulphinyl]-benzimidazole] had an inhibition in vivo at 2 µmol/kg of 87%. `Cc1c(C[S+]([O-])c2nc3ccccc3[nH]2)ncnc1N1CCCCC1` (centres unmarked) [Example 25b, 2-[(5-Methyl-4-(1-piperidinyl)-pyrimidin-6-yl)methylsulphinyl]benzimidazole] showed an inhibition in vivo at 2 µmol/kg of 84%. `Cc1c(C[S+]([O-])c2nc3ccccc3[nH]2)ncnc1N(C)C` (centres unmarked) [Example 27b, 2-[(5-Methyl-4-dimethylamino-pyrimidin-6-yl)methylsulphinyl]benzimidazole] came in with an inhibition in vivo at 2.5 µmol/kg of 92%. `Cc1cnc(C[S+]([O-])c2nc3ccccc3[nH]2)c(C)c1N(C)C` (centres unmarked) [Example 2, 2-[ (4-Dimethylamino-3,5-dimethylpyrid-2-1)methylsulphinyl] benzimidazole] returned an inhibition in vivo at 1 µmol/kg of 37%.

Compound `Cc1cnc(C[S+]([O-])c2nc3cc(Cl)ccc3[nH]2)c(C)c1N(C)C` (centres unmarked) [Example 11b, 5-Chloro-2-[(4-dimethylamino-3,5-dimethypyrid-2-yl)-methylsulphinyl]benzimidazole] came in with an inhibition in vivo at 2 µmol/kg of 37%. The compound `Cc1cnc(C[S+]([O-])c2nc3ccccc3[nH]2)c(C)c1N1CCOCC1` (centres unmarked) [Example 8b, 2-[(3,5-dimethyl-4-morpholino-pyrid-2-yl)methylsulphinyl]benzimidazole] returned an inhibition in vivo at 0.5 µmol/kg (Dose 0.5 μmol/kg) of 72%. Under “Dose 5 μmol/kg”, `Cc1cnc(C[S+]([O-])c2nc3ccccc3[nH]2)c(C)c1Nc1ccccc1` (centres unmarked) [Example 23b, 2-[(3,5-Dimethyl-4-N-anilino-pyrid-2-yl)methylsulphinyl]benzimidazole] showed an inhibition in vivo at 5 µmol/kg of 86%.

With `Cc1c(N(C)c2ccccc2)ccnc1C[S+]([O-])c1nc2ccccc2[nH]1` (centres unmarked) [Example 24b], the inhibition in vivo at 2 µmol/kg was found to be 100%. `Cc1cnc(C[S+]([O-])c2nc3ccccc3[nH]2)c(C)c1N1CCCCC1` (centres unmarked) [Example 6b, 2-[(3,5-dimethyl-4-(piperid-1-yl)pyrid-2-yl)methylsulphinyl]benzimidazole] came in with an inhibition in vivo at 2 µmol/kg of 50%. As for `Cc1c(C[S+]([O-])c2nc3ccccc3[nH]2)ncnc1N1CCOCC1` (centres unmarked) [Example 26b, 2-[(5-Methyl-4-morpholino-pyrimidin-6-yl)methylsulphinyl]benzimidazole], the inhibition in vivo at 2.5 µmol/kg amounted to 84%. Compound `Cc1cnc(C[S+]([O-])c2nc3ccc(Cl)cc3[nH]2)c(C)c1N1CCOCC1` (centres unmarked) [Example 14b, 5-Chloro-2-[(3,5-dimethyl-4-morpholinopyrid-2-yl)-methylsulphinyl]benzimidazole] registered an inhibition in vivo at 1 µmol/kg of 60%.
